Test results reported in article PMC7083880 (Nature Communications, 2020).
“And” between values parts separate entries of the source, which are not always exact repeats. Equal values may be shown once.

What was measured:
[1] = test system: wild-type TP53 in HeLa cells; experiment: p53 function: luciferase under promoter with two p53-responsive elements, HeLa; assay type: cell-based, human
[2] = test system: firefly luciferase construct with UGA PTC in HeLa cells; experiment: UGA readthrough luciferase assay with empty expression vector (E.v.) control; assay type: cell-based, human;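 for luciferase activity, average: DAP exposure for 24 h before luciferase measurement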;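 for luciferase activity, exp2: DAP exposure for 24 h before luciferase measurement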
Excerpt: (§1) Firefly luciferase from HEK293FT cells transfected with the Fluc-int-UGA construct was immunoprecipitated and digested with trypsin. The MS/MS spectrum of the peptide containing the PTC position and the sequence determination are shown. The upper red and blue sequences indicate the amino acids validated, respectively, by detection of Nter and Cter peptide fragments (b and y ion series). Peptide fragments y6 and y7 clearly identify tryptophan (W) at the PTC position. The black peaks correspond to non-attributed mass-to-charge ratio (m/z) values. […] Readthrough efficiency was determined by measuring luciferase activity in HeLa cells co-transfected with the firefly luciferase construct described in Fig. 1b and with increasing amounts of an expression vector for either FTSJ1 or CTU1 (0.5, 1, or 2 µg). The empty expression vector (E.v.) was used as control. […] The experiment was performed twice and the results of both experiments (Exp1 and Exp2) are shown. c Western blot analysis of FTSJ1 and CTU1. d 2′-O-methylation analysis of tRNA^Trp, tRNA^SER, and tRNA^GLN by RiboMethSeq. […] A molecular weight marker is indicated to the left of each gel. p-values (p) were calculated using Student’s t-test. Source data are provided as a Source Data file.
(§2) Among the enzymes modifying tRNAs liable to recognize a stop codon by extended wobbling, human FTSJ1 (TRM7 in yeast) exclusively modifies tRNAs involved in UGA readthrough. In addition to other tRNA targets, FTSJ1 methylates the cytosine at position 34 of tRNA^Trp. Inhibition of this modification could increase the capacity of tRNA^Trp to misdecode and recognize the UGA stop codon. […] FTSJ1 and CTU1 overexpression were assessed by western-blot analysis (Fig. 5c).

FTSJ1 = molecular target: T1, FTSJ1 (Homo sapiens, UniProt Q9UET6); experiment: UGA readthrough luciferase assay with FTSJ1 overexpression; assay type: cell-based
T1 construct: host or cells: HeLa
T1 sequence (Q9UET6 1-329): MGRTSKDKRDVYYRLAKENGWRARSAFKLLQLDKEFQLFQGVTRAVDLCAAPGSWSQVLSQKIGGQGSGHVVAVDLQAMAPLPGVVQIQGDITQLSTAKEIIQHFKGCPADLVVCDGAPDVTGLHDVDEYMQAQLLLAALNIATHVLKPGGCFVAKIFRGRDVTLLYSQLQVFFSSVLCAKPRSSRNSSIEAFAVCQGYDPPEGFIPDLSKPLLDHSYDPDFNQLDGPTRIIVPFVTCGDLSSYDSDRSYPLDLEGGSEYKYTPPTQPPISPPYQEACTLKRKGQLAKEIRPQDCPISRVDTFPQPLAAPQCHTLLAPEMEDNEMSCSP
Excerpt: as §1, §2

[3] = test system: firefly luciferase (Fluc) gene with UAG nonsense codon at position 109 in HeLa cells; experiment: Firefly luciferase readthrough assay, UAG PTC construct; assay type: cell-based, human; conditions: G418 1mg/ml

## CN[C@@H]1[C@@H](O)[C@@H](O[C@@H]2[C@@H](O)[C@H](O[C@H]3O[C@H]([C@@H](C)O)[C@@H](O)[C@H](O)[C@H]3N)[C@@H](N)C[C@H]2N)OC[C@]1(C)O [G418, reference compound]
[1]; 25µM, FL922
  Luciferase activity, p53-responsive promoter construct (DMSO = 1): 0.9453
[1]; 25µM, FL932
  Luciferase activity, p53-responsive promoter construct (DMSO = 1): 0.904
[1]; 25µM, FL934
  Luciferase activity, p53-responsive promoter construct (DMSO = 1): 1.071
[1]; 25µM, average
  Luciferase activity, p53-responsive promoter construct (DMSO = 1): 0.9735
[1]; 600µM, FL922
  Luciferase activity, p53-responsive promoter construct (DMSO = 1): 0.9542
[1]; 600µM, FL932
  Luciferase activity, p53-responsive promoter construct (DMSO = 1): 0.6225
[1]; 600µM, FL934
  Luciferase activity, p53-responsive promoter construct (DMSO = 1): 1.017
[1]; 600µM, average
  Luciferase activity, p53-responsive promoter construct (DMSO = 1): 0.8645
[2]; 25µM
  luciferase activity, average: 5230.12
  luciferase activity, exp1: 3250.5
  luciferase activity, exp1*1,5: 4875.75
  luciferase activity, exp2: 5584.5
[2]; 600µM
  luciferase activity, average: 9792.88
  luciferase activity, exp1: 6265.5
  luciferase activity, exp1*1,5: 9398.25
  luciferase activity, exp2: 10187.5
FTSJ1; 0.5µg FTSJ1, 25µM
  luciferase activity, average: 2984.12
  luciferase activity, exp1: 2303.5
  luciferase activity, exp1*1,5: 3455.25
  luciferase activity, exp2: 2513
FTSJ1; 0.5µg FTSJ1, 600µM
  luciferase activity, average: 3518
  luciferase activity, exp1: 2352
  luciferase activity, exp1*1,5: 3528
  luciferase activity, exp2: 3508
FTSJ1; 1µg FTSJ1, 25µM
  luciferase activity, average: 2661.5
  luciferase activity, exp1: 1562
  luciferase activity, exp1*1,5: 2343
  luciferase activity, exp2: 2980
FTSJ1; 1µg FTSJ1, 600µM
  luciferase activity, average: 3066.25
  luciferase activity, exp1: 1933
  luciferase activity, exp1*1,5: 2899.5
  luciferase activity, exp2: 3233
FTSJ1; 2µg FTSJ1, 25µM
  luciferase activity, average: 2020.12
  luciferase activity, exp1: 1256.5
  luciferase activity, exp1*1,5: 1884.75
  luciferase activity, exp2: 2155.5
FTSJ1; 2µg FTSJ1, 600µM
  luciferase activity, average: 2062.5
  luciferase activity, exp1: 1540
  luciferase activity, exp1*1,5: 2310
  luciferase activity, exp2: 1815
[3]; average of 2 experiments
  Luciferase activity, UAG PTC: 2275.5±805 and 2275.5
[3]; experiment 1
  Luciferase activity, UAG PTC: 2845
[3]; experiment 2
  Luciferase activity, UAG PTC: 1706
